In US20180339010A1, “USE OF SHORT SYNTHETIC PEPTIDE FOR THE TREATMENT AND/OR PROPHYLAXIS OF DRY EYE DISEASE” (priority 2015, published 2018):

Tests used:
Assay type in all cases: in vivo, C57BL/6 mice
[1] = system: desiccating stressed-mice; test: Tear production (phenol red thread), prophylactic treatment in desiccating stress-induced dry eye model; details: peptide 100 μM topically three times daily for 14 days in CEC; vehicle control 3.7±0.25
Procedure: (§1) C57BL/6 mice (7-8 weeks old, each weighted about 18 to 25 g) were used in the present study. All mice were maintained in the animal facility in accordance with the procedures approved by Mackay Memorial Hospital Review Board (Taiwan, R.O. C.). All animal experimental procedures were conducted according to the ARVO Statement for the Use of Animals in Ophthalmic and Vision Research.
(§2) Dry eyes were induced by placing mice in a controlled environment chamber (CEC) in accordance with procedures previously described by Barabino et al (IVOS (2005) 46(8), 2766-2771). Mice placed in the CEC were exposed to a relative humidity (RH)<25%, temperature of 20 to 22° C., and airflow of 15 L/min, 12 hours per day. Control mice were kept in a normal environment (RH >50%, no air flow, temperature of 21-23° C.) for the same duration.
Tear production was measured by phenol red-impregnated cotton threads (Zone-Quick; Oasis, Glendora, Calif.). The validity of this test in mice was performed in accordance with procedures previously described by Dursun et al. (IVOS (2002) 43, 632-638). The threads were held with jeweler forceps and placed in the lateral canthus for 60 seconds. The tear production expressed in millimeters of thread wet by the tear and turned red.
(§3) Dry eye was created in mice using a controlled environmental chamber (CEC) in accordance with procedures described in the “material and method” section. Treatment was started on the first day when the mice were housed in CEC, in which the present synthetic peptide (i.e., 7-mer, 100 μM), peptide vehicle (1% CMC), or peptides derived from 7-mer (i.e., 7-mer-ΔD, 7-mer-ΔS, 7-mer (V→L) and 7-mer (VR→QK), 100 μM) were topically administered to eyes three times daily for 14 days. The peptides 7-mer-ΔD (LYRVRS, SEQ ID NO: 6) and 7-mer-ΔS (DLYRVR, SEQ ID NO: 7) represented peptides with one amino acid residue respectively deleted from 5-end (D; Aspartic acid) and 3′-end (S; Serine) of 7-mer, and were used as negative control peptides. In addition, the effects of single and double amino-acid substitution at 7-mer that generate 7-mer (V→L) and 7-mer (VR→QK) were also used to treat dry eye.
The protective effects of 7-mer and its derivatives on DED were also evaluated by measuring tears produced by the test animals, and results are depicted in FIG. 2.

[2] = system: desiccating stressed-mice; test: Corneal fluorescein staining, prophylactic treatment in desiccating stress-induced dry eye (CEC) model; details: for biological function towards DED (summary statement): deletion peptides of SEQ ID NO: 2; for corneal fluorescein staining (score), FIG. 1B: peptide 100 μM topically to eyes three times daily for 14 days, started first day in CEC, 1% CMC vehicle 3.8±0.31
Procedure: as §1, §2
Animals were anesthetized by an intraperitoneal injection of a mixture of zoletil (6 mg/kg) and xylazine (3 mg/kg). Corneal epithelial injury was determined by staining with topical fluorescein (Fluor-I-Strip, Ayerst Laboratories, Philadelphia, Pa.). Corneal fluorescein staining was examined with a slit-lamp biomicroscope under cobalt blue light and photographed with a digital camera. Data is presented as mean±SD. The number of fluorescein staining dots were graded in the 1-mm central cornea zone of each eye, on a standardized five-point scale (0 dot, grade 0; 1-5 dots, grade 1; 6-15 dots, grade 2; 16-30 dots, grade 3; 30 dots, grade 4). One point was added to the score if there was one area of confluent staining, and two points were added for two or more areas of confluence. (Li J et al., Mole Visions 2012, 18, 317)
as §3
Fluorescein staining was used to assess changes in corneal epithelial integrity, and results are illustrated in FIGS. 1A and 1B. FIG. 1A are photographs taken on dry eyes respectively treated with the 1% CMC vehicle, 7-mer and its derivates; and FIG. 1B gives the quantitative analysis of FIG. 1A.

[3] = system: desiccating stressed-mice; test: Corneal epithelial histopathology (H&E), detached superficial apical cells, therapeutic treatment; details: 14 days in CEC, then eye drops for 7 days, peptides 100 μM; for detached superficial apical cells on H&E stained cornea sections, observation in words, FIG. 4A: 0.1% Dex; for detached superficial apical cells (number), FIG. 4B: 1% CMC control 14±1.06
Procedure: as §1, §2
The corneal epithelial damage was assessed as described previously (Pflugfelder et al., 2005, Am J Pathol 166, 61-71). In brief, the number of detaching apical cells was counted from a full microscope field-of vision from three separate tissue sections, by two independent masked observers, using a 20 objective. Three mice were evaluated in each treatment
Dry eye was created by housing the test animals in CEC for 14 days in accordance with procedures described in the “material and method” section. After confirmation of signs of DED by fluorescein stain (FIG. […] 3A; lower panel; day 21; and FIG. 3B).

[4] = system: desiccating stressed-mice; test: PAS staining of goblet cells in conjunctival epithelium, therapeutic treatment; details: 14 days in CEC, then eye drops for 7 days; for number of goblet cells in PAS-stained sections, observation in words, FIG. 5A: peptides 100 μM
Procedure: as §1, §2
After animals were euthanized, eyes were surgically excised, fixed in 10% formalin, paraffin embedded, and cut into 5-μm sections. […] Statistics
Dry eye was created by housing the test animals in CEC for 14 days in accordance with procedures described in the “material and method” section. After confirmation of signs of DED by fluorescein stain (FIG. 3A; upper panel; day 14), animals were then removed from the CEC and placed in the normal environment (day 15), then started treatment by administering eye drop containing 1% CMC, 1% dexamethasone (Dex), 7-mer (100 μM), or 7-mer (ΔS) (100 μM) for 7 days (FIG. 3A; lower panel; day 21; and FIG. 3B).

[5] = system: desiccating stressed-mice; test: Corneal fluorescein staining, therapeutic treatment of desiccation stress-induced dry eye; details: 14 days in CEC, then eye drops for 7 days in normal environment (day 21); peptides 100 μM; 1% CMC control 3.6±0.26
Procedure: as §1, §2
Animals were anesthetized by an intraperitoneal injection of a mixture of zoletil (6 mg/kg) and xylazine (3 mg/kg). Corneal epithelial injury was determined by staining with topical fluorescein (Fluor-I-Strip, Ayerst Laboratories, Philadelphia, Pa.). Corneal fluorescein staining was examined with a slit-lamp biomicroscope under cobalt blue light and photographed with a digital camera. Data is presented as mean±SD. […]

| Substance | tear production (thread wet by the tear), FIG. 2 [1] | biological function towards DED (summary statement) [2] | corneal fluorescein staining (score), FIG. 1B [2] | detached superficial apical cells on H&E stained cornea sections, observation in words, FIG. 4A [3] | detached superficial apical cells (number), FIG. 4B [3] | goblet cells (number), FIG. 5B ([4]; 7-mer 100 μM, 1% CMC control 7.5±0.96) | number of goblet cells in PAS-stained sections, observation in words, FIG. 5A [4] | corneal fluorescein staining score, FIG. 3B [5] |
| --- | --- | --- | --- | --- | --- | --- | --- | --- |
| LYRVRS [7-mer (ΔD), negative control peptide, 7-mer with N-terminal aspartate deleted] | neither 7-mer (ΔD) nor 7-mer (ΔS) peptides possessed such effect | do not possess any biological function towards DED | no such effect |  |  |  |  |  |
| DLYRQKS [7-mer (VR→QK), NH2-Asp-Leu-Tyr-Arg-Gln-Lys-Ser-COOH] | 4.9±0.15 millimeters |  |  |  |  |  |  |  |
| DLYRVRS [7-mer, NH2-Asp-Leu-Tyr-Arg-Val-Arg-Ser-COOH] | 5.1±0.21 millimeters |  | 1.3±0.21 | no detached cells were found | 2.1±0.37 | 12.7±1.28 | relatively the same as that of the normal healthy mice | 1.5±0.18 |
| DLYRVR [7-mer (ΔS), negative control peptide, 7-mer with C-terminal serine deleted] | neither 7-mer (ΔD) nor 7-mer (ΔS) peptides possessed such effect | do not possess any biological function towards DED | no such effect | Detached superficial apical cells were identified | 13.8±1.03 |  | significant reduction in the number of goblet cells | no therapeutic effect |
| DLYRLRS [7-mer (V→L), NH2-Asp-Leu-Tyr-Arg-Leu-Arg-Ser-COOH] | 5.0±0.16 millimeters |  |  |  |  |  |  |  |
